Literature values, collected in PMC9653884, “Bisindolylmaleimides New Ligands of CaM Protein” (Molecules, 2022).

Target: CaM
Conditions: read-out: Kd of reported CaM inhibitor

| SMILES | Kd [µM] |
| --- | --- |
| CN(C)CCCN1c2ccccc2CCc2ccccc21 [Imipramine] | 14 |
| NCCc1c[nH]c2ccc(O)cc12 [Serotonin] | 0.71 |
| NCCCCCCNS(=O)(=O)c1cccc2c(Cl)cccc12 [W7] | 7 |
| CC[C@]1(O)C[C@@H]2CN(CCc3c([nH]c4ccccc34)[C@@](C(=O)OC)(c3cc4c(cc3OC)N(C)[C@@H]3[C@]45CCN4CC=C[C@@](CC)(C[C@@]36OC(=O)N(CCCl)C6=O)[C@H]45)C2)C1 [KAR-2] | 5 |
